# Assay results as given in ChEMBL document CHEMBL1629615, “Intrapulmonary pharmacokinetics and pharmacodynamics of posaconazole at steady state in healthy subjects” (Antimicrob Agents Chemother, 2009).
# Tests used:
# [1] = Cmax in healthy human lung epithelial lining fluid at 200 mg, po every 12 hrs for 5 days; format: ADME, organism-based; design: dose 200 mg, route oral
# [2] = test system: Plasma; assay: Cmax in healthy human plasma assessed as hydroxyitraconazole at 200 mg, po every 12 hrs for 5 days; format: ADME, organism-based; design: dose 200 mg, route oral; conditions: in vivo
# [3] = Cmax in healthy human alveolar cell assessed as hydroxyitraconazole at 200 mg, po every 12 hrs for 5 days; format: ADME, organism-based, Lung, Pneumocyte; design: dose 200 mg, route oral; conditions: in vivo
# [4] = test system: Plasma; assay: AUC (0 to 24 hrs) in healthy human plasma assessed as hydroxyitraconazole at 200 mg, po every 12 hrs for 5 days; format: ADME, organism-based; design: time < 24 hr, dose 200 mg, route oral; conditions: in vivo
# [5] = AUC (0 to 24 hrs) in healthy human lung epithelial lining fluid assessed as hydroxyitraconazole at 200 mg, po every 12 hrs for 5 days; format: ADME, organism-based; design: dose 200 mg, time < 24 hr, route oral; conditions: in vivo
# [6] = AUC (0 to 24 hrs) in healthy human alveolar cell assessed as hydroxyitraconazole at 200 mg, po every 12 hrs for 5 days; format: ADME, organism-based, Pneumocyte; design: time < 24 hr, dose 200 mg, route oral; conditions: in vivo
compound,measurement,setting,value
CC(O)C(C)n1ncn(-c2ccc(N3CCN(c4ccc(OCC5COC(Cn6cncn6)(c6ccc(Cl)cc6Cl)O5)cc4)CC3)cc2)c1=O (stereo unspecified) [HYDROXYITRACONAZOLE],Cmax,[1],3300 ng/mL
same,Cmax,[2],1000 ng/mL
same,Cmax,[3],6600 ng/mL
same,AUC,[4],60200 ng·h/mL
same,AUC,[5],18900 ng·h/mL
same,AUC,[6],134000 ng·h/mL
